In ChEMBL document CHEMBL5506038, “Discovery of LC-MI-3: A Potent and Orally Bioavailable Degrader of Interleukin-1 Receptor-Associated Kinase 4 for the Treatment of Inflammatory Diseases” (J Med Chem, 2024):
Calls of active or inactive are those of the source. No cut-off for these calls is given here.

What was measured:
[1] = biological target: T1, Protein cereblon/Interleukin-1 receptor-associated kinase 4 (Mus musculus) (UniProt Q8C7D2+Q8R4K2); assay: PROTAC activity at IRAK4/CRBN in mouse BaF3 cells assessed as reduction in IRAK4 level at 100 nM incubated for 12 hrs by Western blot analysis relative to control; format: cell-based; design: scale not given: the % may be the effect or the level left
[2] = biological target: T1, Protein cereblon/Interleukin-1 receptor-associated kinase 4 (Mus musculus); assay: PROTAC activity at IRAK4/CRBN in mouse RAW264.7 cells assessed as reduction in IRAK4 level at 100 nM incubated for 12 hrs by Western blot analysis relative to control; format: cell-based
[3] = biological target: Protein cereblon/Interleukin-1 receptor-associated kinase 4 (Mus musculus, UniProt Q8C7D2+Q8R4K2); assay: PROTAC activity at IRAK4/CRBN in mouse RAW264.7 cells assessed as reduction in IRAK4 level incubated for 12 hrs by Western blot analysis; format: cell-based
RAW264.7 [4] = assay: Effect on IRAK4 mRNA level in mouse RAW264.7 cells by RT-qPCR analysis; format: functional, cell-based
[5] = biological target: T1, Protein cereblon/Interleukin-1 receptor-associated kinase 4 (Mus musculus); assay: PROTAC activity at IRAK4/CRBN in mouse RAW264.7 cells assessed as induction of IRAK4 degradation at 25 to 2500 nM incubated for 12 hrs by Western blot analysis; format: cell-based; details: dose 25-2500 nM
[6] = biological target: T1, Protein cereblon/Interleukin-1 receptor-associated kinase 4 (Mus musculus); assay: PROTAC activity at IRAK4/CRBN in mouse RAW264.7 cells assessed as induction of IRAK4 degradation at 100 nM incubated for 12 hrs in presence of MG132 by Western blot analysis; format: cell-based
[7] = biological target: T1, Protein cereblon/Interleukin-1 receptor-associated kinase 4 (Mus musculus); assay: PROTAC activity at IRAK4/CRBN in mouse RAW264.7 cells assessed as reduction in IRAK4 level at 200 nM incubated for 12 hrs by proteomic analysis; format: cell-based
[8] = biological target: Serine/threonine-protein kinase RIO1 (Homo sapiens) (UniProt Q9BRS2); assay: Induction of RIOK1 degradation in human Caco-2 cells upto 10000 nM incubated for 12 hrs by Western blotting analysis; format: cell-based
[9] = biological target: Sal-like protein 4 (Homo sapiens) (UniProt Q9UJQ4); assay: Induction of SALL4 degradation in human THP-1 cells upto 10000 nM incubated for 12 hrs by Western blotting analysis; format: cell-based
RAW264.7 [10] = assay: Activation of NF-kappaB pathway in LPS-induced mouse RAW264.7 cells expressing EGFP at 5 uM pretreated with compound for 1 hr followed by LPS-induction and measured after 6 hrs by flow cytometry analysis; format: cell-based; details: filed as activator, time 7.0 hrs
RAW264.7 [11] = assay: Effect on IL-6 mRNA expression in LPS-induced mouse RAW264.7 cells at 1 uM pretreated with compound for 1 hr followed by LPS-induction and measured after 6 hrs by RT-PCR analysis; format: functional, cell-based; details: time 7.0 hrs
[12] = biological target: T2, Interleukin-1 receptor-associated kinase 4 (Homo sapiens) (UniProt Q9NWZ3); assay: Inhibition of IRAK4 in human BMDM cells assessed as decrease in TLR4 endocytosis by flow cytometry analysis; format: cell-based
T2 sequence (whole entry): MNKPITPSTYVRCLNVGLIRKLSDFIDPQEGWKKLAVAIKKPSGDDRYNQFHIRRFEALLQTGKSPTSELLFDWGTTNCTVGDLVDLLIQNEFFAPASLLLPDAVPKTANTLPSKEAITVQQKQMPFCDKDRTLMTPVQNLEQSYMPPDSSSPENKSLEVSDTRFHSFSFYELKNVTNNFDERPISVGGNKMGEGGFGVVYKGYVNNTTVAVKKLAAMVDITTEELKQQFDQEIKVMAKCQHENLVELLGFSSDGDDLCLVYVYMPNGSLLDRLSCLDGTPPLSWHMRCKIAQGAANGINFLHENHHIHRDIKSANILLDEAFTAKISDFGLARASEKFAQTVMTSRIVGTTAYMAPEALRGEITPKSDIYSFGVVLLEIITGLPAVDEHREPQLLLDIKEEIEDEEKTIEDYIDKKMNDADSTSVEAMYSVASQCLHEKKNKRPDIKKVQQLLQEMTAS

[13] = Half life in Sprague-Dawley rat at 2 mg/kg, iv by LC-MS/MS analysis; format: ADME, organism-based; details: in vivo
[14] = Half life in Sprague-Dawley rat at 20 mg/kg, po by LC-MS/MS analysis; format: ADME, organism-based; details: in vivo
[15] = Tmax in Sprague-Dawley rat at 2 mg/kg, iv by LC-MS/MS analysis; format: ADME, organism-based; details: in vivo
[16] = AUC (0 to infinity) in Sprague-Dawley rat at 20 mg/kg, po by LC-MS/MS analysis; format: ADME, organism-based; details: in vivo
[17] = Volume of distribution at steady state in Sprague-Dawley rat at 2 mg/kg, iv by LC-MS/MS analysis; format: ADME, organism-based; details: in vivo, read-out: Vdss
[18] = Clearance in Sprague-Dawley rat at 2 mg/kg, iv by LC-MS/MS analysis; format: ADME, organism-based; details: in vivo
[19] = Oral bioavailability in Sprague-Dawley rat at 20 mg/kg by LC-MS/MS analysis; format: ADME, organism-based; details: in vivo
Mus musculus [20] = assay: Anti-inflammatory activity against LPS-induced acute […] injury C57BL/6 mouse model assessed as reduction in TNF-alpha level in lung at 20 mg/kg, IG pretreated with compound for 12 hrs followed by LPS-induction and measured after 6 hrs by RT-PCR analysis; format: functional, organism-based; details: time 18.0 hrs
Mus musculus [21] = assay: Anti-inflammatory activity against LPS-induced acute […] injury C57BL/6 mouse model assessed as reduction in IL-6 level in lung at 20 mg/kg, IG pretreated with compound for 12 hrs followed by LPS-induction and measured after 6 hrs by RT-PCR analysis; format: functional, organism-based; details: time 18.0 hrs
Mus musculus [22] = assay: Anti-inflammatory activity against LPS-induced acute […] injury C57BL/6 mouse model assessed as reduction in F4/80-positive macrophage in lung at 20 mg/kg, IG pretreated with compound for 12 hrs followed by LPS-induction and measured after 6 hrs by Immunohistochemical analysis; format: functional, organism-based; details: time 18.0 hrs
RAW264.7 [23] = assay: Protection against Escherichia coli-induced sepsis in mouse RAW264.7 cells assessed as reduction in TNF-alpha level at 1 uM pretreated with compound for 6 hrs followed by Escherichia coli-induction and measured after 6 hrs by RT-PCR analysis; format: functional, cell-based; details: time 12.0 hrs
Mus musculus [24] = assay: Protection against LPS-induced sepsis in C57BL/6 mouse model assessed as improvement in survival rate at 20 mg/kg, IG measured at 12 hrs; format: functional, organism-based
Mus musculus [25] = assay: Anti-inflammatory activity in imiquimod-induced C57BL/6 mouse psoriasis model assessed as improvement in erythema score at 20 mg/kg, po administered twice daily measured for 6 days; format: functional, organism-based; details: time 6.0 day
Mus musculus [26] = assay: Anti-inflammatory activity in imiquimod-induced C57BL/6 mouse psoriasis model assessed as reduction in keratinocyte proliferation at 20 mg/kg, po administered twice daily measured for 6 days by H and E staining based analysis; format: functional, organism-based; details: time 6.0 day
Mus musculus [27] = assay: Anti-inflammatory activity in imiquimod-induced C57BL/6 mouse psoriasis model assessed as reduction in epidermal acanthosis at 20 mg/kg, po administered twice daily measured for 6 days by H and E staining based analysis; format: functional, organism-based; details: time 6.0 day
Mus musculus [28] = assay: Anti-inflammatory activity in imiquimod-induced C57BL/6 mouse psoriasis model assessed as reduction in dermal inflammatory cell infiltration at 20 mg/kg, po administered twice daily measured for 6 days by H and E staining based analysis; format: functional, organism-based; details: time 6.0 day
[29] = Toxicity in C57BL/6 mouse assessed as effect on body weight at 20 mg/kg, po measured for 6 days; format: organism-based; details: in vivo, 144 h, time 6 day

T1 sequence (Q8C7D2 whole entry, looked up): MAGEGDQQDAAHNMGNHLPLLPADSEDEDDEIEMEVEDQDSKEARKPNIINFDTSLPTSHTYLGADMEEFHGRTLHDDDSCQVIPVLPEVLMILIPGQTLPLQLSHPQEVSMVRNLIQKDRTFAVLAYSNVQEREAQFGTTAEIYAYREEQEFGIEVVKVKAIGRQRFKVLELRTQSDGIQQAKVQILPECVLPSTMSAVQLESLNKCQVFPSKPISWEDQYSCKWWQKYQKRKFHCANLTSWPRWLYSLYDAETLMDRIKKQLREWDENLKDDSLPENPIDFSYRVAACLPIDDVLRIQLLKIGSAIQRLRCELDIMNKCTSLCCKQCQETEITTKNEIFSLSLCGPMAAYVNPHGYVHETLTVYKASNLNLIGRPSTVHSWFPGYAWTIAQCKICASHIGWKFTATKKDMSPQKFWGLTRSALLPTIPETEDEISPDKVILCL
T1 sequence (Q8R4K2 whole entry, looked up): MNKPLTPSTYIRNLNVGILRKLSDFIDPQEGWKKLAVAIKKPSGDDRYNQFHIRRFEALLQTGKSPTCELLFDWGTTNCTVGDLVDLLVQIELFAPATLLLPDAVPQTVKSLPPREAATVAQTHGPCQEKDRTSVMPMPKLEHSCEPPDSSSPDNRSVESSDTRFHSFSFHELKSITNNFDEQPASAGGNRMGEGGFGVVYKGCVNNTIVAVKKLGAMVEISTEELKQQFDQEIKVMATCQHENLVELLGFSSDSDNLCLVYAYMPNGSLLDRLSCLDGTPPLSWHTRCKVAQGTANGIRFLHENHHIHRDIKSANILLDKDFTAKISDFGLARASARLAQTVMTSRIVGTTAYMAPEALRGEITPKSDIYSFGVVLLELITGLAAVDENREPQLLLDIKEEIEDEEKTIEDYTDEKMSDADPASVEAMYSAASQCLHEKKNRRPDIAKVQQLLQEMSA
Chain of Serine/threonine-protein kinase RIO1 (Homo sapiens) (Q9BRS2 whole entry): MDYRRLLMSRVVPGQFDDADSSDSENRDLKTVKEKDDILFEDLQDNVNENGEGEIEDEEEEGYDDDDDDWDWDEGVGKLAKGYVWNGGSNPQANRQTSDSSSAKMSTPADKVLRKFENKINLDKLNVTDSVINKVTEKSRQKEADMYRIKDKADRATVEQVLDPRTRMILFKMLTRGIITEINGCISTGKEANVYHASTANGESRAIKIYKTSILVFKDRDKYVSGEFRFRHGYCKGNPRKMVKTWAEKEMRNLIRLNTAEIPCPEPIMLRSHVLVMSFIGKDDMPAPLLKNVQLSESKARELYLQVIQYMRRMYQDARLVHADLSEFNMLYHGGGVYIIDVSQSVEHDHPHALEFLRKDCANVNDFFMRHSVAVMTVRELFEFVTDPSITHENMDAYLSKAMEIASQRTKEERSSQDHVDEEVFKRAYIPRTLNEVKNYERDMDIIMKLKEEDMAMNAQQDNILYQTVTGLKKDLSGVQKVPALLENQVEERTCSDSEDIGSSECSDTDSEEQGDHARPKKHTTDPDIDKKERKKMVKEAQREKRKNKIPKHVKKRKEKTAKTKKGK
Chain of Protein cereblon/Interleukin-1 receptor-associated kinase 4 (Q8C7D2 whole entry): as the sequence (Q8C7D2 whole entry, looked up) above
Chain of Protein cereblon/Interleukin-1 receptor-associated kinase 4 (Q8R4K2 whole entry): as the sequence (Q8R4K2 whole entry, looked up) above
Chain of Sal-like protein 4 (Homo sapiens) (Q9UJQ4 whole entry): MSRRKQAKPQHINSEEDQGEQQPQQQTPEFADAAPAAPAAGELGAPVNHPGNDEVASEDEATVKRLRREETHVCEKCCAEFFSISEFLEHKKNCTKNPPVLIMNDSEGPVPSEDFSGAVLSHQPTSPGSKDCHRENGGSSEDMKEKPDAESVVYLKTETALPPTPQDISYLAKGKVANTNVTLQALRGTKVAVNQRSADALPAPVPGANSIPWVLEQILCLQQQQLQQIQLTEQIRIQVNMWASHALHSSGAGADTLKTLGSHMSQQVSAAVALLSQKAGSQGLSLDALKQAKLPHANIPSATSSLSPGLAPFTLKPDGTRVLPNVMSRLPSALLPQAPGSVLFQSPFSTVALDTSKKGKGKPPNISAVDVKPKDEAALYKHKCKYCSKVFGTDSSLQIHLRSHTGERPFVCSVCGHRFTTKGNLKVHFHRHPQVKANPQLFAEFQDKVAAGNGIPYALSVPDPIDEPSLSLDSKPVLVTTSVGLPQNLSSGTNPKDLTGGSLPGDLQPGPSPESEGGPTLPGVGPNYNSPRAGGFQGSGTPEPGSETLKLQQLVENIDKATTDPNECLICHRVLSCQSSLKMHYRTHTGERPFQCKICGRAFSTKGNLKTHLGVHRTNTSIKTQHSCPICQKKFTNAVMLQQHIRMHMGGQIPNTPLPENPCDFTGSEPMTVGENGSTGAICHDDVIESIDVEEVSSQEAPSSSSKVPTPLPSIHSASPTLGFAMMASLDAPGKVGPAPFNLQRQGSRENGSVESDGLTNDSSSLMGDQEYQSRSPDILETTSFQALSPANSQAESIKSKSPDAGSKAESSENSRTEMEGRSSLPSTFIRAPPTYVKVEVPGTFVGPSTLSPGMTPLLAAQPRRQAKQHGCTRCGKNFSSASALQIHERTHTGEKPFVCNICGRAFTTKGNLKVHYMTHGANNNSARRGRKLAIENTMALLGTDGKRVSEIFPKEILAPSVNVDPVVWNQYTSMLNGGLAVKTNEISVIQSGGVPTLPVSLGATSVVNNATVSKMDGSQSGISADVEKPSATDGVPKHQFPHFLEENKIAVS

Activity [1]: 15% | Emax [2]: 85% | DC50 [3]: 47.4 nM | Activity [5]: inactive | Activity [6]: Active | Activity [7]: Active | Activity [8]: inactive | Activity [9]: inactive | inhibition [12]: Active | half-life [13]: 29.2 min | half-life [14]: 87.2 min | Tmax [15]: 4.98 min | AUC(0-inf) [16]: 1080 ng·h/mL | Vd [17]: 0.584 L/kg | clearance [18]: 25.6 mL/min/kg | bioavailability [19]: 8.15%
SMILES: COc1cc(N2CCN(C(=O)CCOCC#Cc3ccc4c(c3)C(=O)N(C3CCC(=O)NC3=O)C4=O)CC2)ccc1NC(=O)c1cccc(-c2ccn[nH]2)n1 (centres undefined)
Activity (RAW264.7 [4]): inactive | Activity (RAW264.7 [10]): Active | Activity (RAW264.7 [11]): Active | Activity (Mus musculus [20]): Active | Activity (Mus musculus [21]): Active | Activity (Mus musculus [22]): Active | Activity (RAW264.7 [23]): Active | Activity (Mus musculus [24]): Active | Activity (Mus musculus [25]): Active | Activity (Mus musculus [26]): Active | Activity (Mus musculus [27]): Active | Activity (Mus musculus [28]): Active | Activity [29]: Non-Toxic
